Inhibition and Activity data for 53 compounds are collected here from ChEMBL document CHEMBL5257100, “Discovery and development of benzene sulfonamide derivatives as anti-hepatic fibrosis agents” (Bioorg Med Chem Lett, 2023).

The source made the active and inactive calls. The calls are words filed in the database; no cut-off is given here.

Series [1] is described as follows: Anti-hepatic fibrosis activity in human LX2 cells assessed as inhibition of COL1A1 promoter activity at 25 micromol/L by luciferase reporter assay relative to control. As to conditions: LX-2, dose 25 µmol/L. The format is functional.
For the next series, the system named is AML12. The series can be described thus: Cytotoxicity against mouse AML12 cells assessed as mortality rate at 1 to 30 uM incubated for 24 hrs by Sulfonyl Rhodamine B assay. The format is toxicity, cell-based. To be noted: aml12, 24 h, dose 1-30 µM.
Series [2] is described as follows: Inhibition of JAK1/STAT1/STAT3 signaling pathway in human LX2 cells assessed as decrease in TGF-beta induced JAK1 phosphorylation level at 1 uM incubated for 24 hrs by Western blot analysis. The series is classed as cell-based.
Series [3] can be described thus: Inhibition of JAK1/STAT1/STAT3 signaling pathway in human LX2 cells assessed as decrease in TGF-beta induced STAT3 phosphorylation level at 1 uM incubated for 24 hrs by Western blot analysis. The series is classed as cell-based.
The nature of series [4]: Cytotoxicity against human LX2 cells assessed as mortality rate at 1 to 30 uM incubated for 24 hrs by Sulfonyl Rhodamine B assay. The series is classed as toxicity, cell-based. To be noted: lx-2, 24 h, dose 1-30 µM.
A short description of series [5]: Inhibition of JAK1/STAT1/STAT3 signaling pathway in human LX2 cells assessed as decrease in TGF-beta induced STAT1 phosphorylation level at 1 uM incubated for 24 hrs by Western blot analysis. The series is classed as cell-based.
The subject of series [6] is LX-2. As to the kind of experiment: Anti-hepatic fibrosis activity in human LX2 cells assessed as inhibition of TGF-beta1 induced COL1A1 mRNA expression at 3 micromol/L incubated for 24 hrs by qPCR analysis. The series is classed as functional, cell-based. As to conditions: dose 3.0 µmol/L.
Series [7] relates to LX-2. As to the kind of experiment: Anti-hepatic fibrosis activity in human LX2 cells assessed as inhibition of TGFbeta1-induced alpha-SMA protein expression at 3 uM incubated for 24 hrs by western blot analysis. The format is functional, cell-based.
Series [8] has as its system LX-2. The series can be described thus: Anti-hepatic fibrosis activity in human LX2 cells assessed as inhibition of TGFbeta1-induced COL1A1 protein expression at 3 uM incubated for 24 hrs by western blot analysis. The format is functional, cell-based.
Series [9] has as its system LX-2. As to the kind of experiment: Anti-hepatic fibrosis activity in human LX2 cells assessed as inhibition of TGFbeta1-induced TIMP-1 protein expression at 3 uM incubated for 24 hrs by western blot analysis. The format is functional, cell-based.
Series [10] relates to LX-2. The series can be described thus: Anti-hepatic fibrosis activity in human LX2 cells assessed as inhibition of TGFbeta1-induced FN protein expression at 3 uM incubated for 24 hrs by western blot analysis. The series is classed as functional, cell-based.

With `Cc1cccc(S(=O)(=O)Nc2ccccc2NC(=O)c2cc(Cl)c(Cl)c(Cl)c2)c1`, the inhibition at 25 µM in [1] was 15.3%.

Regarding `COc1ccc(NC(=O)Nc2ccccc2NS(=O)(=O)c2cccc([N+](=O)[O-])c2)cc1`, in [1], the inhibition at 25 µM turned out to be 25.4%. Still for that read-out and setting: the result for `COc1cccc(NCc2ccccc2NS(=O)(=O)c2cccc([N+](=O)[O-])c2)c1` reads 23.2%; that for `O=C(Nc1ccc(Cl)cc1Cl)Nc1ccccc1NS(=O)(=O)c1cccc(OC(F)(F)F)c1`, 26.2%. Still for that read-out and setting: to `O=C(Nc1cccc(C(F)(F)F)c1)Nc1ccccc1NS(=O)(=O)c1ccc([N+](=O)[O-])cc1` belongs 22.9%; to `COc1cccc(S(=O)(=O)Nc2ccccc2CNc2cc(Cl)c(Cl)c(Cl)c2)c1`, 11.9%. On the same count and under the same terms, the result for `O=C(Nc1cc(C(F)(F)F)ccc1Cl)Nc1ccccc1NS(=O)(=O)c1cccc([N+](=O)[O-])c1` reads 21.3%; that for `COc1ccc(S(=O)(=O)Nc2ccccc2CNc2cc(Cl)c(Cl)c(Cl)c2)cc1`, 1.2%. Regarding `O=[N+]([O-])c1cccc(S(=O)(=O)Nc2ccccc2CNc2cc(Cl)ccc2Cl)c1`, the inhibition at 25 µM in [1] was 40%. For `O=C(Nc1cc(Cl)c(Cl)c(Cl)c1)c1ccccc1NS(=O)(=O)c1cccc([N+](=O)[O-])c1`, the Activity result (with AML12; in [4]) was “Non-Toxic” throughout. Besides, the inhibition result (in series [2]; in series [3]; in series [5]; in the series with LX-2 [6]) was “Active” in each case. Moreover, the inhibition at 25 µM in [1] is 35.9%.

In the case of `COc1ccc(C(F)(F)F)cc1NC(=O)Nc1ccccc1NS(=O)(=O)c1ccc([N+](=O)[O-])cc1`, the inhibition at 25 µM in [1] is 21.5%.

`O=S(=O)(Nc1ccccc1CNc1cc(Cl)c(Cl)c(Cl)c1)c1ccc(OC(F)(F)F)cc1`: in [1], the inhibition at 25 µM stood at 42.4%. Turning to `O=[N+]([O-])c1ccc(S(=O)(=O)Nc2ccccc2CNc2cc(Cl)ccc2Cl)cc1`, the inhibition entry in the series on LX-2 [7], in the series with LX-2 [8], with LX-2 [9], in the series with LX-2 [10] and in the series with LX-2 [6] was “Active” in each case. Moreover, the inhibition at 25 µM in series [1] turned out to be 32.3%. Turning to `O=S(=O)(Nc1ccccc1CNc1cc(Cl)c(Cl)c(Cl)c1)c1ccc(Cl)cc1`, the inhibition at 25 µM in series [1] was 31.7%. Consider `COc1cccc(S(=O)(=O)Nc2ccccc2NC(=O)c2cc(Cl)c(Cl)c(Cl)c2)c1`, for which the inhibition at 25 µM in series [1] is 1.5%. Same read-out and setting: to `COc1ccc(C(F)(F)F)cc1NC(=O)Nc1ccccc1NS(=O)(=O)c1cccc([N+](=O)[O-])c1` belongs 20.2%; to `O=C(Nc1ccccc1NS(=O)(=O)c1cccc([N+](=O)[O-])c1)c1ccc(Cl)c(Cl)c1`, 30.9%; to `COc1cccc(S(=O)(=O)Nc2ccccc2NC(=O)Nc2cc(Cl)c(Cl)c(Cl)c2)c1`, 16.9%. On the same count and under the same terms, the result for `O=S(=O)(Nc1ccccc1CNc1cc(Cl)c(Cl)c(Cl)c1)c1cccc(C(F)(F)F)c1` reads 37.3%; that for `O=C(Nc1cc(C(F)(F)F)ccc1Cl)Nc1ccccc1NS(=O)(=O)c1ccc([N+](=O)[O-])cc1`, 39.4%. Still for that read-out and setting: to `Cc1cccc(S(=O)(=O)Nc2ccccc2CNc2cc(Cl)c(Cl)c(Cl)c2)c1` belongs 2.2%; to `CC[C@H]1[C@@H](O)[C@@H]2[C@H](CC[C@]3(C)[C@@H]([C@H](C)CCC(=O)O)CC[C@@H]23)[C@@]2(C)CC[C@@H](O)C[C@@H]12` [OBETICHOLIC ACID], 7.9%; to `C=C1C(=O)O[C@@H]2/C=C(\C)CC/C=C(\C)CC[C@@H]12` [COSTUNOLIDE], 45.4%.

For the compound `O=[N+]([O-])c1cccc(S(=O)(=O)Nc2ccccc2CNc2ccc(F)c(Cl)c2)c1`, the inhibition at 25 µM in series [1] amounted to 24.1%. As to `O=C(Nc1ccccc1NS(=O)(=O)c1ccc([N+](=O)[O-])cc1)c1ccc(Cl)cc1Cl`, the inhibition at 25 µM in [1] was determined as 33%. On to `O=C(Nc1ccccc1NS(=O)(=O)c1ccc([N+](=O)[O-])cc1)c1cc(Cl)ccc1Cl`, for which the inhibition at 25 µM in [1] amounted to 26.5%. `COc1ccc(C(=O)Nc2ccccc2NS(=O)(=O)c2cccc([N+](=O)[O-])c2)cc1`: in series [1], the inhibition at 25 µM turned out to be 33.6%.

Take `Cc1cccc(S(=O)(=O)Nc2ccccc2NC(=O)Nc2cc(Cl)c(Cl)c(Cl)c2)c1`: in series [1], the inhibition at 25 µM is 24.9%. Same read-out and setting: to `O=C(Nc1ccc(Cl)cc1)Nc1ccccc1NS(=O)(=O)c1ccc([N+](=O)[O-])cc1` belongs 23.6%; to `O=C(Nc1ccccc1NS(=O)(=O)c1cccc([N+](=O)[O-])c1)c1cc(Cl)ccc1Cl`, 24.6%. As to `O=[N+]([O-])c1ccc(S(=O)(=O)Nc2ccccc2CNc2cc(F)ccc2Cl)cc1`, the inhibition entry with LX-2 [7], with LX-2 [8], in the series on LX-2 [9] and with LX-2 [10] was “Active” throughout. The inhibition at 25 µM in [1] worked out at 26%. `O=C(Nc1ccccc1NS(=O)(=O)c1cccc([N+](=O)[O-])c1)c1ccc(Cl)cc1Cl`: the inhibition at 25 µM in series [1] came to 27.9%.

In the case of `O=C(Nc1ccccc1NS(=O)(=O)c1cccc([N+](=O)[O-])c1)c1ccc(F)c(Cl)c1`, the inhibition at 25 µM in series [1] turned out to be 37.1%. Same read-out and setting: to `Cc1ccc(NCc2ccccc2NS(=O)(=O)c2cccc([N+](=O)[O-])c2)cc1` belongs 14.7%; to `O=C(Nc1ccc(Cl)c(Cl)c1)Nc1ccccc1NS(=O)(=O)c1cccc([N+](=O)[O-])c1`, 21.6%; to `Cc1ccc(S(=O)(=O)Nc2ccccc2CNc2cc(Cl)c(Cl)c(Cl)c2)cc1`, 3.4%.

Consider `O=C(Nc1ccc(C(F)(F)F)cc1)Nc1ccccc1NS(=O)(=O)c1ccc([N+](=O)[O-])cc1`, for which, in series [1], the inhibition at 25 µM amounted to 21.3%. For the compound `O=C(Nc1ccc(Cl)cc1)Nc1ccccc1NS(=O)(=O)c1cccc([N+](=O)[O-])c1`, the inhibition at 25 µM in series [1] is 21.9%. Still for that read-out and setting: to `O=S(=O)(Nc1ccccc1CNc1cc(Cl)c(Cl)c(Cl)c1)c1cccc(Cl)c1` belongs 33.4%. The same measure, in the same setting: to `O=C(O[C@@H]1Cc2c(O)cc(O)cc2O[C@@H]1c1cc(O)c(O)c(O)c1)c1cc(O)c(O)c(O)c1` [EPIGALOCATECHIN GALLATE] belongs 25.3%. Take `O=C(Nc1cccc(C(F)(F)F)c1)Nc1ccccc1NS(=O)(=O)c1cccc([N+](=O)[O-])c1`: the inhibition at 25 µM in [1] was 22.8%. Turning to `O=C(Nc1ccccc1NS(=O)(=O)c1ccc([N+](=O)[O-])cc1)c1ccc(Cl)c(Cl)c1`, the inhibition result in the series with LX-2 [7], with LX-2 [8], with LX-2 [9], in the series with LX-2 [10] and in the series on LX-2 [6] was “Active” each time. Moreover, the inhibition at 25 µM in series [1] came out at 49.3%.

With `O=[N+]([O-])c1cccc(S(=O)(=O)Nc2ccccc2CNc2cc(Cl)c(Cl)c(Cl)c2)c1`, in [1], the inhibition at 25 µM worked out at 42.3%. The inhibition entry in the series on LX-2 [6] was “Active”. For the compound `O=C(Nc1ccc(C(F)(F)F)cc1)Nc1ccccc1NS(=O)(=O)c1cccc([N+](=O)[O-])c1`, the inhibition at 25 µM in series [1] came out at 17.8%.

Regarding `O=[N+]([O-])c1ccc(S(=O)(=O)Nc2ccccc2CNc2ccc(F)c(Cl)c2)cc1`, in [1], the inhibition at 25 µM came to 34.2%. Same read-out and setting: the result for `O=S(=O)(Nc1ccccc1CNc1cc(Cl)c(Cl)c(Cl)c1)c1cccc(OC(F)(F)F)c1` reads 33.5%; that for `O=C(Nc1ccc(Cl)cc1Cl)Nc1ccccc1NS(=O)(=O)c1ccc([N+](=O)[O-])cc1`, 25.8%. Still for that read-out and setting: to `O=C(Nc1ccc(Cl)cc1Cl)Nc1ccccc1NS(=O)(=O)c1cccc([N+](=O)[O-])c1` belongs 29.8%; to `COc1ccc(NC(=O)Nc2ccccc2NS(=O)(=O)c2ccc([N+](=O)[O-])cc2)cc1`, 14.5%; to `O=S(=O)(Nc1ccccc1CNc1cc(Cl)c(Cl)c(Cl)c1)c1ccc(C(F)(F)F)cc1`, 42.4%.

`O=C(Nc1ccc(Cl)c(Cl)c1)Nc1ccccc1NS(=O)(=O)c1ccc([N+](=O)[O-])cc1`: in series [1], the inhibition at 25 µM was found to be 28.5%. In the series on LX-2 [6], the inhibition entry is “Active”. As to `O=[N+]([O-])c1ccc(S(=O)(=O)Nc2ccccc2CNc2cc(Cl)c(Cl)c(Cl)c2)cc1`, the inhibition entry with LX-2 [7], in the series on LX-2 [8], in the series with LX-2 [9], in the series with LX-2 [10] and in the series on LX-2 [6] was “Active” throughout. In addition, in series [1], the inhibition at 25 µM is 48.7%. Take `O=[N+]([O-])c1cccc(S(=O)(=O)Nc2ccccc2CNc2cc(F)ccc2Cl)c1`: the inhibition at 25 µM in series [1] came to 29.8%.
